Experimental data: a melting point compilation (Tetko et al.; mined from patent text by program, amines drawn as free bases though some values may be those of a salt)

Row | melting point [°C] | SMILES
1 | 213 to 216 | FC(F)(F)Oc1ccc(-n2cnc(-c3ccc(/C=N/NC(=S)Nc4ccccc4C4CCCC4)cc3)n2)cc1
2 | 176 | CC(C)(C)OC(=O)NCc1nc2c(C(F)(F)F)cccc2c(=O)o1
3 | 233 to 234 | CS(=O)c1cccc(-n2cnc(-c3ccc(F)cc3)c2-c2ccncc2)c1 (stereo not given)
4 | 260 to 261 | CCOC(=O)C1=C(C#N)Nc2nccn2C1c1cccc([N+](=O)[O-])c1 (stereo not given)
5 | 63 to 64 | CC(=O)c1cccc2c1ccn2C
6 | 236 to 238 | NC(=O)c1ccc(CN2C(=O)C3(COc4cc5c(cc43)OCCO5)c3ccccc32)cc1 (stereo not given)
7 | 58 to 60 | COC(=O)c1scc(Br)c1N
8 | 108 | CC12CCC(C(=Cc3ccc(CI)cc3)C1=O)C2(C)C (stereo not given)
9 | 229 to 232 | COCc1nnc(NCCCN2CC3CCC(CC3)C2)c2cc3ccccn3c12
10 | 110 | COc1ccc2nccc(CCCC3CCCNC3)c2c1 (stereo not given)
11 | 140 to 142 | CCN(CC)C(=O)Cn1c(-c2ccc(C(F)(F)F)cc2)nc2cccnc21
12 | 83 to 85 | O=C(CCCCCCOc1ccccc1)c1nnc(CO)o1
13 | 249 to 250 | O=C(O)C1Cc2ccccc2N1c1ncccn1 (stereo not given)
14 | 123 to 125 | CCN(CC)CCCC1CCCN(C(=O)N2c3ccccc3NC(=O)c3cccnc32)C1 (stereo not given)
15 | 196 to 197 | Cc1cc(Br)c2c(c1)C(C(=O)O)c1ccccc1CO2 (stereo not given)
16 | 137 to 138 | O=C(Nc1ccc(Oc2ccccc2)cc1)N1CCN(c2ncnc3cc(OCc4ccccc4)c(OCc4ccccc4)cc23)CC1
17 | 95 to 96.5 | NCC1c2ccccc2C=Cc2ccccc21
18 | 111 to 113 | CN(C[C@H]1CC[C@H](C(=O)O)CC1)c1ncc(Br)cn1
19 | 72 to 73 | CC(=O)SC1CC(=O)N1C(Cl)C(=O)OCc1ccc([N+](=O)[O-])cc1 (stereo not given)
20 | 177 to 178 | CCOC(=O)C1=C[C@@H](O)[C@H](NC(C)=O)[C@@H](NC(=O)OC(C)(C)C)C1
21 | 189 | O=C(C[C@@H](O)C(F)(F)F)N[C@H]1CC[C@H](CCN2CCC(c3cccc4c3CCO4)CC2)CC1
22 | 65 to 73 | C=C(OCC)c1cc(C(=O)OC)c(NC(C)=O)cc1C(F)(F)F
23 | 85 | COc1ccc(C(O)CN2CCN(C(c3ccccc3)c3ccccc3)CC2)cc1OC (stereo not given)

Row | melting point [°C] | SMILES
24 | 128 to 131 | COc1cccc2c1Cc1ccccc1C2(CCOS(C)(=O)=O)CCOS(C)(=O)=O
25 | > 250 | COc1ccc(Nc2nc(-c3cccc(C(=O)Nc4ccc(C(=O)O)cc4)c3)cn3ccnc23)cc1OC
26 | 182 to 184 | O=C(NCCc1nnn[nH]1)C(CS)C(F)(F)F (stereo not given)
27 | 104 to 105 | CCS(=O)(=O)Nc1cc(N=C=S)c(F)cc1Cl
28 | 128 | CCCC1=C(C(=O)OCC)C(c2ccccc2OCc2ccccc2)c2c[nH]nc2N1 (stereo not given)
29 | 121 to 122 | N#CCCSN1C(=O)COCC1=O
30 | 121 to 123 | Brc1ccc(-c2ccc3ccccc3c2)cc1
31 | 157 to 159 | C=CCN(CC=C)c1nc(NC(=O)CC)n2oc(=O)nc2n1
32 | 68 to 69.5 | CCCCCCCCCCCCCCCCOc1coc(CO)cc1=O
33 | 117 to 120 | COC(=O)CCc1ccc(N(c2ccc(-c3ccc(N(c4ccc(CCC(=O)OC)cc4)c4cccc5ccccc45)cc3)cc2)c2cccc3ccccc23)cc1
34 | 224 to 227 | O=c1[nH]c2cc(Cl)cc(Cl)c2c(O)c1Sc1ccc(OCc2ccccc2)cc1
35 | > 300 | O=C(O)c1c2c(nc3ccc(F)cc13)-c1ccc(-c3ccc(F)cc3F)cc1CCC2
36 | 218 to 219 | O=c1c2c(CSc3ncnc4[nH]cnc34)cccc2nc(C(F)(F)F)n1-c1ccccc1Cl
37 | 123 to 124 | CCc1c(OCc2ccccc2)nc(OCc2ccccc2)nc1C(=O)c1cc(C)cc(C#N)c1
38 | 75 to 77 | CSC(CC(=O)O)c1ccccc1 (stereo not given)
39 | 107 to 108 | NS(=O)(=O)c1ccc(-c2cc(F)c(F)cc2-c2ccc3c(c2)OCCO3)cc1
40 | 153 to 156 | Cc1nc(N2CCN(Cc3ccccc3C(=O)O)C2=O)sc1C(=O)NCc1ccccc1
41 | > 280 | N#CC1=C(c2cccs2)Nc2n[nH]cc2C1c1cccc(C#N)c1Br (stereo not given)
42 | 114 to 116 | COc1ccc(C(O)CCc2ccccc2O)cc1 (stereo not given)
43 | 109 to 113 | Nc1cccc(COc2cccc3c2CN(C2CCC(=O)NC2=O)C3=O)c1 (stereo not given)
44 | 181 to 182 | Cc1cccc(NC(=N)N(C)C)c1-c1ccccc1
45 | 158 to 162 | O=Cc1c[nH]c2ccc3c(c12)CC(O)CO3 (stereo not given)
46 | 185 to 188 | O=C(O)CC1(C(=O)O)CCc2cc3ccccc3n2C1 (stereo not given)

Row | melting point [°C] | SMILES
47 | 161 to 162 | NC1CCc2ccccc2NC1=O (stereo not given)
48 | 66 | Cc1ccc(-c2cc(C=O)ccn2)cc1
49 | 187 to 188 | O=C(Nc1c(C(O)(C(F)(F)F)C(F)(F)F)ccc2ccccc12)c1cccc(C(F)(F)F)c1
50 | 173 to 175 | Cc1ccc(C(=O)NCC(O)CO)cc1-n1c(C)cc(OCc2ccccc2CNC(=O)Nc2cc(C(C)(C)C)nn2-c2ccc(O)c(Cl)c2)c(Cl)c1=O (stereo not given)
51 | 74 to 75 | CC(=O)N(C)N(C(=O)OC(C)(C)C)c1ccc(CC#N)cc1
52 | 204 to 205 | CCCCc1nc2cccc(C(=O)O)c2n1Cc1ccc(-c2ccccc2-c2n[nH]c(=O)o2)cc1
53 | 94 to 96 | CC(=NOCCO)c1ccc2ccccc2c1
54 | 110 to 112 | O=C(NCC(F)(F)F)C1CC(=O)N(Cc2ccccc2)C1 (stereo not given)
55 | 170 to 172 | COc1ccc([C@@H]2c3ccccc3C[C@@H]3CC(=O)N(C)CCN32)cc1 (racemic)
56 | 219 to 223 | CN(Cc1ccc(NC(=O)C2=Cc3cc(-c4ccc5c(c4)OCO5)ccc3S(=O)(=O)CC2)cc1)C1CCC(=O)CC1
57 | 155 to 157 | CC1(C)C=C(c2ccccn2)c2cc(C#N)ccc2OC1
58 | 39 to 41 | O=C(c1ccccc1)C(O)CC(Cl)CCCl (stereo not given)
59 | 130 | NC(=O)/C=C/c1ccc(F)cc1
60 | 219 to 220 | CCCSc1sc(C(N)=O)c2c1-c1nn(C(C)=O)cc1CC2
61 | 90 to 91 | COC(=O)c1cnnc2c(C)cccc12
62 | 71 to 75 | FC(F)(F)c1ccc(CC[C@H]2CN(Cc3ccccc3)CCN2Cc2ccccc2)cc1
63 | 120 | O=C(C=NO)Nc1ccccc1F
64 | 163 to 168 | N#Cc1cc(NC(=O)c2cc3ccccc3s2)ccc1N(CCO)CCO
65 | 176 to 178 | Cc1ccccc1CSc1c(O)cc(-c2ccccc2)oc1=O
66 | 109 to 111 | COc1cc(CCNC(=O)N(C)O)ccc1OCc1ccccc1
67 | > 250 | CN1C(=O)C2(COc3cc4c(cc32)OCCO4)c2c(C(N)=O)cccc21 (stereo not given)
68 | 90 to 91 | COC(=O)C(CCCCNC(=O)c1ccc(N)cc1)n1c2ccccc2c2ccccc21 (stereo not given)
69 | 164 to 166 | CCCCOc1c(CNC(=O)OC(C)(C)C)n(CC2CC2)c(=O)c2ccc(O)cc12

Row | melting point [°C] | SMILES
70 | 199 to 200 | C=CCOc1ccccc1S(=O)(=O)NC(=O)Nc1nc(C)cc(C)n1
71 | 55 to 56 | CCCCCCc1ccc2c3ccc(C=O)cc3n(C)c2c1
72 | 126 to 128 | CCn1c(=O)ccc2cnc(Nc3ccccc3OC)nc21
73 | 164 | CNC(=O)n1sc(N(C)C)nc1=O
74 | 151 to 152 | CC12CCC3c4cccc([N+](=O)[O-])c4CCC3C1CCC2O (stereo not given)
75 | > 230 | N#Cc1c(O)ccc2oc(-c3ccc(O)cc3)cc12
76 | 234 to 236 | CCc1coc2c(-c3ccc(F)cc3)c(-c3ccc(S(N)(=O)=O)cc3)nn12
77 | 237 | CC1(C)CCc2c(N3CCSCC3)nc3sc4c(NCc5ccncc5)ncnc4c3c2C1
78 | 117 to 118 | COC1C(N2CCCC2=O)c2sccc2OC1(C)C (stereo not given)
79 | 105 to 106 | N#Cc1cnc2cc(/C=C/CCCCCCCCCN3CCOCC3)ccc2c1Nc1ccc(Cl)cc1Cl
80 | 99 to 101 | CCOC(=O)c1coc(-c2ccc(CO)cc2)n1
81 | 219 to 221 | COc1ccc(-c2cc3c(n2-c2ccc(O)c(C(=O)O)c2)CCCC3)cc1
82 | 173 | O=C1CCC(c2ccccc2)(c2ccccc2)[C@@H]2CN(C(=O)Cc3ccccc3)C[C@H]12 (racemic)
83 | 85 to 87 | O=[N+]([O-])c1ccc2ccn(CCCCl)c2c1
84 | 152 | CCN(CC)Cc1ccc2c(c1)ncn2-c1cccc(-c2nccs2)c1
85 | 160 to 162 | O=C(CCCCCCCCCCN1CCN(c2ccccc2)CC1)Nc1ccc(O)cc1
86 | 164 to 165 | N#Cc1ccc2c(c1)C(=O)N1CCC[C@@H]1CO2
87 | 314 | C1=NNSc2ccccc21
88 | 105 to 106 | CCOC(=O)CC(NC(=O)c1cc(N)ccc1OCCOC)c1ccccc1 (racemic)
89 | 138 to 140 | CCOc1ccc(-c2nc(-c3ccc(OC4OC(CO)C(O)C(O)C4O)cc3)cs2)cc1OCC (stereo not given)
90 | 178 | CC1(C)COC(c2ccc(N)c(N)c2)(c2cccs2)OC1
91 | 209 to 211 | Cn1c(C(F)(F)F)cc(=O)n(-c2c(F)cc(Cl)c3cc(CS(C)(=O)=O)oc23)c1=O
92 | 135 | Cc1c(CC(=O)NCCO[N+](=O)[O-])cc(-c2ccc(S(C)(=O)=O)cc2)n1-c1ccc(F)cc1

Row | SMILES | melting point [°C]
93 | CN(C)CCc1ccc(O)c2[nH]nnc12 | 207 to 211
94 | CC1(C)C(=O)N(c2ccc(C#N)c(C(F)(F)F)c2)C(=S)N1CCF | 135
95 | N#Cc1nn(-c2c(Cl)cc(C(F)(F)F)cc2Cl)c(N)c1C1=CCCCC1 | 175 to 177
96 | O=c1[nH]c2cc(Cl)ccc2n1C1CCN(C[C@H]2CO[C@@H](c3ccc(F)cc3)C2)CC1 (relative stereo) | 208
97 | c1ccc2c(N3CCNCC3)nccc2c1 | 54 to 56
98 | COC(=O)C(O)(c1cccc(C(F)(F)F)c1)c1cccc(C(F)(F)F)c1 | 69 to 70
99 | Cc1cccc2c1N(CC(=O)N1CC3CCC(CC3)C1)C(=O)C(NC(=O)Nc1cccc(Cc3nnn[nH]3)c1)N=C2c1ccccc1F (stereo not given) | 154 to 168
100 | O=C1Nc2ccccc2C1CCCCN1CC=C(c2ccc(Cl)cc2)CC1 (stereo not given) | 122 to 124
